Laboratory results published in patent US20090202571A1, “Bioreductively-activated prodrugs” (HOPNIC LABORATORY CO., LTD., priority 2004, published 2009).

How the values were obtained:
human P450 reductase = target: T1, human P450 reductase (Homo sapiens, UniProt P16435); assay: Drug release by human cytochrome P450 reductase; type: biochemical; conditions: NADPH, pH 7.4, 37° C.
T1 construct: purchased Gentest or Cypex P244 (Gentest) or Cyp004 (Cypex)
T1 sequence (P16435 1-677): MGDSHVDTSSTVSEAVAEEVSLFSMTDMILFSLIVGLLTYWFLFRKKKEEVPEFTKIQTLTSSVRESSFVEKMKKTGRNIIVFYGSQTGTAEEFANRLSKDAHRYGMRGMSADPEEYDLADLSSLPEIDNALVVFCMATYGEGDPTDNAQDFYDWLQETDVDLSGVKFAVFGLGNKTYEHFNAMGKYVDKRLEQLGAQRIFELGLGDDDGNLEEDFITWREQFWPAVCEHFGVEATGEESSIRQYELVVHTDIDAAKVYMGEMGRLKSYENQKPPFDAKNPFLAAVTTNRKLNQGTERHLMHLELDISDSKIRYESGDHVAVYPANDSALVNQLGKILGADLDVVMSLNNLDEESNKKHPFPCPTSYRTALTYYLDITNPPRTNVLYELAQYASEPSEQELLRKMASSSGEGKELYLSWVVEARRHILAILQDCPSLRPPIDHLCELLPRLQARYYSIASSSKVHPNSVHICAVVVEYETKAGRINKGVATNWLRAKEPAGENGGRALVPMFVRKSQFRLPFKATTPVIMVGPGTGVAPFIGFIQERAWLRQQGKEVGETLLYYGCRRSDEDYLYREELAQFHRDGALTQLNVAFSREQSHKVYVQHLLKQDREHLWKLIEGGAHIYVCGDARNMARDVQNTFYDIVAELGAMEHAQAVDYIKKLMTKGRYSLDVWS
Experimental: Cytochrome p450 reductase is widely expressed in human tumours as well as in a range of normal tissues and is one of a number of enzymes that can catalyse bioreduction. […] For experiments under nitrogen the mixture was degassed with nitrogen for 20 minutes prior to compound addition and overgassed with nitrogen during the incubation.

[1] = Metabolism in tumour homogenates; type: in vitro ADME; conditions: 5 μmol dm^−3 prodrug, NADPH, pH 7.4, 37° C.
Experimental: Useful bioreductive prodrugs can be shown to release the active drug selectively under conditions of low oxygen in the presence of tumour homogenate in this assay. Freshly-excised CaNT tumours (approximately 0.5 to 1 g) were homogenised in 15 ml of ice-cold 50 mmol din^−3 potassium phosphate buffer at pH 7.4.

A549 cells = assay: Cellular cytotoxicity (Celltiter 96 Aqueous One Solution, MTS); type: cell-based; conditions: 61 h incubation period as printed, MTS absorbance 490 nm
Description: The cytotoxic or cytostatic properties of compounds of formula (1) and corresponding etoposide compounds can be assessed for example, by use, for example, of this assay. The Celltiter 96® Aqueous One Solution Cell Proliferation Assay kit (Promega Corporation, USA) which is a colorimetric method for determining the number of viable cells in proliferation or cytotoxicity assays was used. In this assay the MTS tetrazolium compound (Owen's Reagent) is bioreduced by viable cells into a coloured formazan product which is soluble in tissue culture medium and can be measured by recording absorbance at 490 nm with a 96 well plate reader. A549 cells were seeded in Eagles Minimum Essential Medium supplemented with 10% foetal calf serum and non-essential amino acids at 10^3 cell per well on a 96 well plate and allowed to attach for 24 h. Compounds were dissolved in DMSO and diluted with cell culture medium before addition. […] The MTS reagent was added to each well, left for 4 h, then the absorbance measured at 490 nm with a 96 well plate reader.

[2] = 5 μmol dm^−3 prodrug, NADPH, pH 7.4, 37° C.
Experimental: Freshly-excised mouse liver (approximately 1 g) was homogenised in 15 ml of ice-cold 50 mmol dm^−3 potassium phosphate buffer at pH 7.4. The homogenates were centrifuged at 1000 RPM for 10 min and the supernatants stored on ice. The metabolism of 5 µmol dm^−3 prodrug in air was performed with 0.5 ml liver homogenate (˜2 mg of protein by Bradford assay) with 100 µmol dm^−3 NADPH in 50 mmol dm^−3 potassium phosphate buffer at pH 7.4 incubated at 37° C. Samples (60 µl) were taken at regular intervals and added to an equivalent volume of acetonitrile, then mixed and centrifuged at 14, 300 RPM for 2 min prior to product analysis by HPLC.

9-[(4,6-O-Ethylidene-β-D-glucopyranosyl)oxy]-5,8,8a,9-tetrahydro-5-(4-(1-(5-nitrothien-2-yl)ethoxy)-3,5-dimethoxyphenyl)furo[3′,4′:6,7]naphtha[2,3-d]-1,3-dioxol-6(5aH)-one [Example 1]
drug production (human P450 reductase; under air): no drug production could be detected
rate of etoposide production (human P450 reductase; under anoxia (nitrogen)): 0.83 nmol min^−1 mg protein^−1
etoposide production ([1]; under air): no etoposide production was detected
rate of etoposide production ([1]; under nitrogen): 17 μmol/min/mg protein
IC50 (A549 cells): > 20 µM

9-[(4,6-O-Ethylidene-β-D-glucopyranosyl)oxy]-5,8,8a,9-tetrahydro-5-(4-(5-nitrothien-2-yl)methoxy)-3,5-dimethoxyphenyl)furo[3′,4′:6,7]naphtha[2,3-d]-1,3-dioxol-6(5aH)-one [Example 2]
Rate of drug release (pmol/min/mg protein) Anoxic ([2]; Anoxic (nitrogen)): 388 pmol/min/mg protein
Rate of drug release (pmol/min/mg protein) Oxic ([2]; Oxic (air)): 7 pmol/min/mg protein

COc1cc([C@@H]2c3cc4c(cc3[C@@H](O[C@@H]3O[C@@H]5CO[C@@H](C)O[C@H]5[C@H](O)[C@H]3O)[C@H]3COC(=O)[C@H]23)OCO4)cc(OC)c1O [etoposide, reference compound]
IC50 (A549 cells; Homo sapiens): 7.5 µM
